From US20060052455A1, “Composition for preventing treating the xepression of clinical symptom in disease caused by mitochondrial dysfunction” (priority 2002, published 2006)

Tested on: MELAS patients
Assay: Intravenous drip infusion of L-arginine monohydrochloride to MELAS patients
Type: in vivo, human
Excerpt: This treatment by intravenous injection is, however, not convenient for MELAS patients, because, in order to receive intravenous injection in the acute stage of cerebral apoplexy-like episode, they have to go to the hospital to receive such intravenous injection immediately after the episode has occurred. […] The scintillating scotoma refers to an abnormal visual field which is one of warning symptoms of a cerebral apoplexy-like episode, and when it occurs, a riffle-like light suddenly appears in a part of the visual field and usually lasts for 5 to 30 minutes. Moreover, administration of a large amount of L-arginine monohydrochloride into a blood vessel may presumably cause side effects such as drop in blood pressure, hydrochloric acidosis, or the like.

SMILES: Cl.N=C(N)NCCC[C@H](N)C(=O)O [L-arginine monohydrochloride]
- treatment of the acute stage of cerebral apoplexy-like episode due to MELAS (intravenous drip infusion, three patients): effective
- improvement of warning symptoms of the episode, particularly scintillating scotoma (intravenous injection): cannot improve
